Laboratory results reported in US20250304559A1, “Ether-Linked Antiviral Compounds” (Pfizer Inc., priority 2021, published 2025).
Where two headings read alike, the source gives them in different places.

How the values were obtained:
[1] = biological target: T1, SARS-CoV-2 3CL protease (Severe acute respiratory syndrome coronavirus 2, UniProt P0DTD1); assay: SARS-CoV-2 Coronavirus 3C Protease FRET Assay; format: biochemical; details: Morrison equation fit, 15 nM enzyme, 25 μM peptide substrate
T1 construct: measures the activity of full-length SARS-CoV-2 3CL protease

[2] = test system: SARS-CoV-2 (USA_WA1/2020); assay: Antiviral Activity from SARS-CoV-2 Infection (cytopathic effect, Cell Titer-Glo); format: cell-based; details: Severe acute respiratory syndrome coronavirus 2, Vero C1008, 72 h, tested alone or with P-gp inhibitor CP-100356 2 μM (table does not say which)
[3] = Examples 1-13, 60 minutes at 23° C., read-out: Geometric Mean Ki
[4] = VeroE6 cells enriched for hACE2, MOI 0.002, 3-day incubation, read-out: Geometric Mean EC50
[5] = Examples 14-78 and 114 (second head of Table 2), read-out: Geometric Mean Ki (nM) IC50

Row | Compound | Ki [1, 3] [nM] | EC50 [2, 4] [nM] | Ki [1, 5] [nM] | EC50 ([2]; read-out: Geometric Mean EC50 (nM), VeroE6 cells enriched for hACE2, MOI 0.002, 3-day incubation) [nM]
1 | CC(C)[C@H](NS(=O)(=O)C(F)(F)F)C(=O)N1C[C@H]2[C@@H]([C@H]1C(=O)N[C@@H](C[C@@H]1CCNC1=O)C(=O)COc1cc(C(F)(F)F)nn1C)C2(C)C [Example 11, (1R,2S,5S)-6,6-dimethyl-N-{(2S)-4-{[1-methyl-3-(trifluoromethyl)-1H-pyrazol-5-yl]oxy}-3-oxo-1-[(3S)-2-oxopyrrolidin-3-yl]butan-2-yl}-3-{N-[(trifluoromethyl)sulfonyl]-L-valyl}-3-azabicyclo[3.1.0]hexane-2-carboxamide] | 13.5 | 2030 |  | 
2 | CC(C)(C)[C@H](NC(=O)C(F)(F)F)C(=O)N1C[C@H]2[C@@H]([C@H]1C(=O)N[C@@H](C[C@@H]1CCNC1=O)C(=O)COc1cccc(C(F)(F)F)c1)C2(C)C [Example 12, (1R,2S,5S)-6,6-dimethyl-3-[3-methyl-N-(trifluoroacetyl)-L-valyl]-N-{(2S)-3-oxo-1-[(3S)-2-oxopyrrolidin-3-yl]-4-[3-(trifluoromethyl)phenoxy]butan-2-yl}-3-azabicyclo[3.1.0]hexane-2-carboxamide] | 6.38 | 51.2 |  | 
3 | CC(C)(C)[C@H](NS(C)(=O)=O)C(=O)N1C[C@H]2[C@@H]([C@H]1C(=O)N[C@@H](C[C@@H]1CCNC1=O)C(=O)COc1ccc(F)cc1F)C2(C)C [Example 13, (1R,2S,5S)-N-{(2S)-4-(2,4-difluorophenoxy)-3-oxo-1-[(3S)-2-oxopyrrolidin-3-yl]butan-2-yl}-6,6-dimethyl-3-[3-methyl-N-(methylsulfonyl)-L-valyl]-3-azabicyclo[3.1.0]hexane-2-carboxamide] | 1.78 | 98.6 |  | 
4 | COc1ccc(COCC(=O)[C@H](C[C@@H]2CCNC2=O)NC(=O)[C@@H]2[C@@H]3[C@H](CN2C(=O)[C@@H](NC(=O)C(F)(F)F)C(C)(C)C)C3(C)C)cc1 [Example 14, (1R,2S,5S)-N-{(2S)-4-[(4-methoxyphenyl)methoxy]-3-oxo-1-[(3S)-2-oxopyrrolidin-3-yl]butan-2-yl}-6,6-dimethyl-3-[3-methyl-N-(trifluoroacetyl)-L-valyl]-3-azabicyclo[3.1.0]hexane-2-carboxamide] |  | 48.7 | 3.48 | 
5 | COC(=O)N[C@H](C(=O)N1C[C@H]2[C@@H]([C@H]1C(=O)N[C@@H](C[C@@H]1CCNC1=O)C(=O)COc1cccc(Cl)c1)C2(C)C)C(C)(C)C [Example 16, methyl {(2S)-1-[(1R,2S,5S)-2-({(2S)-4-(3-chlorophenoxy)-3-oxo-1-[(3S)-2-oxopyrrolidin-3-yl]butan-2-yl}carbamoyl)-6,6-dimethyl-3-azabicyclo[3.1.0]hexan-3-yl]-3,3-dimethyl-1-oxobutan-2-yl}carbamate] |  | 11.6 | 0.21 | 
6 | COC(=O)N[C@H](C(=O)N1C[C@H]2[C@@H]([C@H]1C(=O)N[C@@H](C[C@@H]1CCNC1=O)C(=O)COc1cccc(C(F)(F)F)c1)C2(C)C)C(C)(C)C [Example 17, methyl {(2S)-1-[(1R,2S,5S)-6,6-dimethyl-2-({(2S)-3-oxo-1-[(3S)-2-oxopyrrolidin-3-yl]-4-[3-(trifluoromethyl)phenoxy]butan-2-yl}carbamoyl)-3-azabicyclo[3.1.0]hexan-3-yl]-3,3-dimethyl-1-oxobutan-2-yl}carbamate] |  | 13.3 | < 0.443 | 
7 | COC(=O)N[C@H](C(=O)N1C[C@H]2[C@@H]([C@H]1C(=O)N[C@@H](C[C@@H]1CCNC1=O)C(=O)COc1ccc(F)cc1)C2(C)C)C(C)(C)C [Example 21, methyl {(2S)-1-[(1R,2S,5S)-2-({(2S)-4-(4-fluorophenoxy)-3-oxo-1-[(3S)-2-oxopyrrolidin-3-yl]butan-2-yl}carbamoyl)-6,6-dimethyl-3-azabicyclo[3.1.0]hexan-3-yl]-3,3-dimethyl-1-oxobutan-2-yl}carbamate] |  | 18.8 | 2.2 | 
8 | COC(=O)N[C@H](C(=O)N1C[C@H]2[C@@H]([C@H]1C(=O)N[C@@H](C[C@@H]1CCNC1=O)C(=O)COc1ccccc1F)C2(C)C)C(C)(C)C [Example 22, methyl {(2S)-1-[(1R,2S,5S)-2-({(2S)-4-(2-fluorophenoxy)-3-oxo-1-[(3S)-2-oxopyrrolidin-3-yl]butan-2-yl}carbamoyl)-6,6-dimethyl-3-azabicyclo[3.1.0]hexan-3-yl]-3,3-dimethyl-1-oxobutan-2-yl}carbamate] |  | 52 | 4.78 | 
9 | CC(C)[C@H](NC(=O)C(F)(F)F)C(=O)N1C[C@H]2[C@@H]([C@H]1C(=O)N[C@@H](C[C@@H]1CCNC1=O)C(=O)COc1ccccc1)C2(C)C [Example 23, (1R,2S,5S)-6,6-dimethyl-N-{(2S)-3-oxo-1-[(3S)-2-oxopyrrolidin-3-yl]-4-phenoxybutan-2-yl}-3-[N-(trifluoroacetyl)-L-valyl]-3-azabicyclo[3.1.0]hexane-2-carboxamide] |  | 32 | 1.78 | 
10 | COC(=O)N[C@H](C(=O)N1C[C@H]2[C@@H]([C@H]1C(=O)N[C@@H](C[C@@H]1CCNC1=O)C(=O)COc1ccc(F)cc1F)C2(C)C)C(C)(C)C [Example 24, methyl {(2S)-1-[(1R,2S,5S)-2-({(2S)-4-(2,4-difluorophenoxy)-3-oxo-1-[(3S)-2-oxopyrrolidin-3-yl]butan-2-yl}carbamoyl)-6,6-dimethyl-3-azabicyclo[3.1.0]hexan-3-yl]-3,3-dimethyl-1-oxobutan-2-yl}carbamate] |  | 17 | 1.41 | 
11 | COC(=O)N[C@H](C(=O)N1C[C@H]2[C@@H]([C@H]1C(=O)N[C@@H](C[C@@H]1CCNC1=O)C(=O)COc1cccc(Cl)c1)C2(C)C)C(C)C [Example 25, methyl {(2S)-1-[(1R,2S,5S)-2-({(2S)-4-(3-chlorophenoxy)-3-oxo-1-[(3S)-2-oxopyrrolidin-3-yl]butan-2-yl}carbamoyl)-6,6-dimethyl-3-azabicyclo[3.1.0]hexan-3-yl]-3-methyl-1-oxobutan-2-yl}carbamate] |  | 38.2 | 1.76 | 
12 | CCn1nc(C)cc1OCC(=O)[C@H](C[C@@H]1CCNC1=O)NC(=O)[C@@H]1[C@@H]2[C@H](CN1C(=O)[C@@H](NC(=O)C(F)(F)F)C(C)(C)C)C2(C)C [Example 27, (1R,2S,5S)-N-{(2S)-4-[(1-ethyl-3-methyl-1H-pyrazol-5-yl)oxy]-3-oxo-1-[(3S)-2-oxopyrrolidin-3-yl]butan-2-yl}-6,6-dimethyl-3-[3-methyl-N-(trifluoroacetyl)-L-valyl]-3-azabicyclo[3.1.0]hexane-2-carboxamide] |  | 422 | 8.84 | 
13 | CC(C)(C)[C@H](NS(=O)(=O)C(F)(F)F)C(=O)N1C[C@H]2[C@@H]([C@H]1C(=O)N[C@@H](C[C@@H]1CCNC1=O)C(=O)COc1cccc(Cl)c1)C2(C)C [Example 28, (1R,2S,5S)-N-{(2S)-4-(3-chlorophenoxy)-3-oxo-1-[(3S)-2-oxopyrrolidin-3-yl]butan-2-yl}-6,6-dimethyl-3-[3-methyl-N-(trifluoromethanesulfonyl)-L-valyl]-3-azabicyclo[3.1.0]hexane-2-carboxamide] |  | 16.8 | 2.15 | 
14 | CC(C)(C)[C@H](NS(=O)(=O)C(F)(F)F)C(=O)N1C[C@H]2[C@@H]([C@H]1C(=O)N[C@@H](C[C@@H]1CCNC1=O)C(=O)COc1ccc(F)cc1)C2(C)C [Example 29, (1R,2S,5S)-N-{(2S)-4-(4-fluorophenoxy)-3-oxo-1-[(3S)-2-oxopyrrolidin-3-yl]butan-2-yl}-6,6-dimethyl-3-[3-methyl-N-(trifluoromethanesulfonyl)-L-valyl]-3-azabicyclo[3.1.0]hexane-2-carboxamide] |  |  | 4.69 | 57
15 | COC(=O)N[C@H](C(=O)N1C[C@H]2[C@@H]([C@H]1C(=O)N[C@@H](C[C@@H]1CCNC1=O)C(=O)COc1ccccc1)C2(C)C)C(C)(C)C [Example 30, methyl{(2S)-1-[(1R,2S,5S)-6,6-dimethyl-2-({(2S)-3-oxo-1-[(3S)-2-oxopyrrolidin-3-yl]-4-phenoxybutan-2-yl}carbamoyl)-3-azabicyclo[3.1.0]hexan-3-yl]-3,3-dimethyl-1-oxobutan-2-yl}carbamate] |  | 27.2 | 2.15 | 
16 | CCn1nc(C)cc1OCC(=O)[C@H](C[C@@H]1CCNC1=O)NC(=O)[C@@H]1[C@@H]2[C@H](CN1C(=O)[C@@H](NC(=O)OC)C(C)(C)C)C2(C)C [Example 33, methyl {(2S)-1-[(1R,2S,5S)-2-({(2S)-4-[(1-ethyl-3-methyl-1H-pyrazol-5-yl)oxy]-3-oxo-1-[(3S)-2-oxopyrrolidin-3-yl]butan-2-yl}carbamoyl)-6,6-dimethyl-3-azabicyclo[3.1.0]hexan-3-yl]-3,3-dimethyl-1-oxobutan-2-yl}carbamate] |  | 1270 | 3.04 | 
17 | CC(C)(C)[C@H](NS(=O)(=O)C(F)(F)F)C(=O)N1C[C@H]2[C@@H]([C@H]1C(=O)N[C@@H](C[C@@H]1CCNC1=O)C(=O)COc1cc(F)ccc1F)C2(C)C [Example 34, (1R,2S,5S)-N-{(2S)-4-(2,5-difluorophenoxy)-3-oxo-1-[(3S)-2-oxopyrrolidin-3-yl]butan-2-yl}-6,6-dimethyl-3-[3-methyl-N-(trifluoromethanesulfonyl)-L-valyl]-3-azabicyclo[3.1.0]hexane-2-carboxamide] |  | 86 | 6.95 | 
18 | CC(C)(C)[C@H](NS(=O)(=O)C(F)(F)F)C(=O)N1C[C@H]2[C@@H]([C@H]1C(=O)N[C@@H](C[C@@H]1CC(O)NC1=O)C(=O)COc1ccc(F)cc1F)C2(C)C (stereo partly drawn) [Example 38, (1R,2S,5S)-N-{(2S)-4-(2,4-difluorophenoxy)-1-[(3R)-5-hydroxy-2-oxopyrrolidin-3-yl]-3-oxobutan-2-yl}-6,6-dimethyl-3-[3-methyl-N-(trifluoromethanesulfonyl)-L-valyl]-3-azabicyclo[3.1.0]hexane-2-carboxamide] |  | 1390 | 4.12 | 
